The nature of experiment [1]: Calcein dye leakage from mammalian-mimicking LUVs. Format: biochemical. The note with it: for % Calcein leakage from DOPC LUVs: LUVs 10 µM phospholipid, 10 mM Tris, 100 mM NaCl pH 7.4, 5 min, fluorescence 496/515 nm, no-peptide control 28.0, average of duplicate experiments. The protocol: (§1) A calcein leakage assay as previously described was performed to determine the effects of PIN-based peptides on the permeability of synthetic large unilamellar vesicles (LUVs), designed to mimic bacterial and mammalian cell membranes. The phospholipids used were DOPC (1,2-dioleoyl-sn-glycero-3-phosphocholine), with zwitterionic head groups and DOPG (1,2-dioleoyl-sn-glycerol-3-[phosphor-rac-(1-glycerol)]), with negatively charged headgroups (Avanti® Polar lipids, Alabaster, USA). These were used to make DOPC:DOPG (1∶3) LUVs to mimic bacterial cell membranes, or DOPC only, to mimic mammalian cell membranes. Calcein-entrapped LUVs were prepared by the extrusion method using an Avanti mini extrusion apparatus (Avanti® Polar Lipids, Alabaster, USA). The DOPC:DOPG (a 1∶3 mixture) or DOPC were dissolved in chloroform (25 mg/mL) and aliquoted into glass test tubes to give a concentration of 2.6 mM when resuspended in 2 mL buffer. Chloroform was evaporated under a stream of N2 and the lipid films were dried overnight under vacuum. The films were then resuspended in 2.0 mL of 70 mM calcein buffer (in 10 mM Tris-HCl, pH 7.4) and incubated at room temperature for 30 minutes. To increase entrapment of the dye, five repeated freeze\thaw cycles were used by placing the vial in liquid N2 and then a warm water bath (37°C). The lipid mixture was then extruded through the mini-extruder 10 times through two stacked 0.1 µm pore-size filters. Free calcein was removed by centrifugation (10, 000×g, 10 min) three times and washing with 10 mM Tris, 100 mM NaCl buffer (pH 7.4). Standards of phosphorus (inorganic P; Pi) were prepared (0.05–1.5 mg/mL) using KH2PO4 and read at 820 nm and a linear standard curve was generated (Figure S1 in File S1). The phospholipid concentration of the vesicle preparations was determined by a total phosphorus assay. The assay reagent was prepared fresh by mixing 1 part of 1% ascorbic acid with 6 parts of 0.42% ammonium molybdate•4H2O in H2SO4 and stored on ice. 7 µL of it was added to 3 µL of vesicle suspensions and incubated for 20 min at 45°C. […] The standard curve of phosphorus standards (Figure S1 in File S1) was used to determine the Pi concentration in a LUV preparation, and this was converted to phospholipid concentration (Table S1 in File S1) to adjust the preparations to the required 10 µM phospholipid concentration prior to peptide treatment.
(§2) The calcein-filled LUVs were diluted with 10 mM Tris, 100 mM NaCl buffer (pH 7.4) to a final phospholipid concentration of 10 µM. The experiments were performed in a Varian Cary Eclipse fluorescence spectrophotometer with excitation and emission wavelengths of 496 nm and 515 nm, slit widths of […] and a PMT detector of 600 V. The peptides (PuroA, Pina-M, Pina-W→F and PuroB) were added to LUVs to a final peptide concentration of 8–125 µg/mL in 100 µL volumes and the fluorescence (F) monitored for 5 min at 60 s intervals. The total calcein fluorescence (FT) was determined by addition of 1.0% Triton X100. The dye leakage was calculated as % Leakage = ((F – F0)/(FT – F0)), F0 being fluorescence of each sample at T = 0.

A short description of experiment [2]: Calcein dye leakage from bacteria-mimicking LUVs. Format: biochemical. The note with it: LUVs 10 µM phospholipid, 10 mM Tris, 100 mM NaCl pH 7.4, 5 min, fluorescence 496/515 nm, no-peptide control 28.5, average of duplicate experiments. The protocol: as §1, §2
The test system of experiment [3] is S. cerevisiae cells. The experiment is described as follows: Propidium iodide uptake by yeast cells. The class given is cell-based, Saccharomyces cerevisiae. The note with it: for % fluorescent cells (propidium iodide uptake): 1 h 30°C in PBS pH 7.4, PI 6 µg/mL 5 min, no-peptide control 5.7, average of 4 fields, two independent experiments. The protocol:
S. cerevisiae was grown overnight at 30°C in 100 mL PDB and the cells collected by centrifugation and resuspended in Phosphate Buffered Saline (PBS: 137 mM NaCl, 2.7 mM KCl, 8 mM Na2HPO4, 1.46 mM KH2PO4; pH 7.4) to ∼1.5×10^7 cells/mL (OD600 = 0.6–0.8). 75 µL of the suspension was incubated with 25 µL of stock solutions of PuroA, Pina-M, Pina-W→F, PuroB and indolicidin (to give a final peptide concentration of 64, 125, 250 or 500 µg/mL), or with PBS (for no-peptide controls) for 1 h at 30°C, followed by staining with propidium iodide (PI) as described. PI stock solution (60 µg/mL) was prepared in MilliQ water and stored in dark at −20°C. It was diluted to 12 µg/mL before use, mixed 1∶1 with peptide-treated or untreated yeast cells (to final PI concentration 6 µg/mL), and the samples incubated in the dark for 5 min. A 10 µL aliquot of these was examined using a Nikon Eclipse 50 i fluorescence microscope with 561 nm excitation and 630/22 emission filter, at 400×magnification. The photomicrographs were taken under light and fluorescence for each field. Five randomly selected fields were recorded and scored for each sample.

The test system of experiment [4] is S. cerevisiae cells. The experiment is described as follows: SEM of peptide-treated yeast cells. The note with it: sub-MIC: PuroA and Pina-M 64 µg/mL, Pina-W→F 125 µg/mL; 1 h 30°C. Format: cell-based, Saccharomyces cerevisiae. The protocol: S. cerevisiae cultures were grown overnight in 5.0 mL of PDB 30°C, to OD600 = 1.2–1.8 (∼5×10^7 cells/mL). 75 µL aliquots of the yeast cell suspension were incubated with 25 µL of PuroA, Pina-M, Pina-W→F or PuroB (at final concentrations of 0.5×, 1× or 2× of the respective MIC for S. cerevisiae; see results) for 1 h at 30°C. The cells were collected by centrifugation (1000×g, 5 min), the pellets washed three times in PBS (pH 7.4) and resuspended in 100 µL MilliQ (ultra-pure) water. A 25 µL aliquot of the cell suspension was spotted onto a glass slide, air-dried, then fixed and dehydrated as described previously. In brief, the air-dried slides were fixed in 2.5% glutaraldehyde (in PBS, pH 7.4) overnight in a humid chamber, then washed with PBS pH 7.4 for 10 min, and dehydrated in an ethanol gradient of 50%, 60%, 70%, 80%, 90% and 100%. The slides were freeze-dried overnight and then coated in a Dynavac CS300 coating unit with carbon and gold, with double sided conducting carbon tape attached to the slides for better conductivity. The samples were analysed using a ZEISS supra 10 VP field emission scanning electron microscope (Carl Zeiss Microscopy, NY, USA) at 3.0 kV.

For a further experiment, the system named is E. coli cells. The note with it: data from previous work; cited from earlier work.

Values joined by “and” are separate entries in the source; they are usually repeats but may differ in a detail not shown here. Equal entries are not always repeated.

Take “FPVTFRFFKFFKG-NH2 [Pina-W→F, PuroA-based peptide with all Trps substituted with Phe residues]”: the “dye leakage from the DOPC LUVs (in words)” value in experiment [1] (over all tested concentrations, even at high concentration) is listed as “no significant leakage”. The “% Calcein leakage from DOPC LUVs” value is 28.0% in experiment [1] (peptide 8 µg/mL); 27.0% in experiment [1] (peptide 16 µg/mL); 27.0% in experiment [1] (peptide 32 µg/mL); 31.0% in experiment [1] (peptide 64 µg/mL); 36.0% in experiment [1] (peptide 125 µg/mL (highest for PuroA, Pina-M, Pina-W→F)). The “% Calcein leakage from DOPC:DOPG LUVs” value in experiment [2] (peptide 8 µg/mL) is recorded as 29.2%; in experiment [2] (peptide 16 µg/mL), 32.0%; in experiment [2] (peptide 32 µg/mL) it was 64%; in experiment [2] (peptide 64 µg/mL), 78.0%; in experiment [2] (peptide 125 µg/mL), 81.0%. For the same substance, the “% fluorescent cells (propidium iodide uptake)” value in the experiment with S. cerevisiae cells [3] (peptide 64 µg/mL) came out at 56.5%; in the experiment on S. cerevisiae cells [3] (peptide 125 µg/mL), 72.3%; in the experiment on S. cerevisiae cells [3] (peptide 250 µg/mL) it was 100%; in the experiment with S. cerevisiae cells [3] (peptide 500 µg/mL), 100%. Besides, in the experiment with S. cerevisiae cells [3] (peptide below its MIC against yeast), the “cells permeable to propidium iodide at sub-MIC levels” value is recorded as 56–72%. Moreover, the “cells permeable to propidium iodide at MIC levels and higher” value in the experiment on S. cerevisiae cells [3] (peptide equal to or greater than its MIC for yeast) was 100%. For the same substance, in the experiment with S. cerevisiae cells [4], the “surface morphology of yeast cells (SEM) at sub-MIC level” value is given as “shallow pits or pores on the surface”. For the same substance, the “MIC against E. coli cells” value in the experiment on E. coli cells is 32 µg/mL and 32 ± 0 µg/mL.
